In patent publication US4742064A, “Antiviral carbocyclic analogs of xylofuranosylpurines” (Regents of the University of Minnesota, priority 1985, dated 1988):
“Also recorded” adds a separate entry of the source.

Legend:
HSV-1 = conditions: prior literature; cited from earlier work
HSV-2 = conditions: prior literature; cited from earlier work
[1] = tested on: P-388 mouse leukemia cells; assay: P-388 mouse leukemia cell culture cytotoxicity assay; format: cell-based; conditions: for IC50: Mus musculus, P388, P-388 leukemia cells in culture, read-out: ED50 (inhibitory concentration, cytotoxicity); for cytotoxicity (in words) / cytotoxicity relative to the corresponding non-aza analogs 9a and 10a (in words): P-388 mouse leukemia cell culture
Text: *Assay Technique: R. G. Almquist and R. Vince, J. Med. Chem., 16, 1396

HSV-1 (E-377) = assay: cytopathogenic effects (CPE)-inhibition procedure, HSV-1, Vero cells; conditions: for VR (virus rating), HSV-1 (E-377): HSV-1 strain E-377, Vero cell monolayers, VR ≥ 1.0 = definite activity, 0.5-0.9 marginal to moderate, < 0.5 usually no significant activity; for antiviral activity against HSV-1 (in words): Table II data
Text: (§1) The analogs were evalulated by a cytopathogenic effects (CPE)-inhibition procedure. The host cell culture systems employed were pre-grown Vero cell monolayers.
(§2) *VR = virus rating: A measurement of selective antiviral activity which
(§3) takes into account the degree of inhibition of virusinduced cytopathogeni
(§4) effects (CPE) and the degree of cytotoxicity produced by the test
(§5) compound, determined by a modification of the method of Ehrlich et al.
(§6) definite (+) antiviral activity, a VR of 0.5-0.9 indicates marginal to
(§7) moderate (+) antiviral activity, and a VR < 0.5 usually indicates no (-)
significant antiviral activity.

HSV-2 (MS) = assay: cytopathogenic effects (CPE)-inhibition procedure, HSV-2, Vero cells; conditions: for VR (virus rating), HSV-2 (MS): HSV-2 strain MS, Vero cell monolayers, VR ≥ 1.0 = definite activity, 0.5-0.9 marginal to moderate, < 0.5 usually no significant activity; for antiviral activity against HSV-2 (in words): Table II data
Text: as §1, §2, §3, §4, §5, §6, §7
significant antiviral activity.

influenza virus = assay: activity against an influenza virus; format: cell-based

## Nc1nc(N)c2ncn([C@@H]3C[C@H](CO)[C@@H](O)[C@@H]3O)c2n1 (relative stereo)
HSV-1
  activity against HSV-1 (in words): exhibited activity
HSV-2
  activity against HSV-2 (in words): inactive

## Nc1nc(Cl)c2ncn([C@@H]3C[C@H](CO)[C@H](O)[C@H]3O)c2n1 (relative stereo) [Compound 8, (d1)-(1 α, 2 β, 3 α, 5 α)-3-(2-Amino-6-chloro-9H-purin-9-yl)-5-(hydroxymethyl)-1,2-cyclopentanediol]
[1]
  IC50: 220 µM

## Nc1nc2c(ncn2[C@@H]2C[C@H](CO)[C@H](O)[C@H]2O)c(=O)[nH]1 (relative stereo) [Compound 9a, (d1)-2-Amino-1,9-dihydro-9-[(1 α,2 β,3 α,4 α)-2,3-dihydroxy-4-(hydroxymethyl)cyclopentyl]-6H-purin-6-one]
HSV-1 (E-377)
  VR (virus rating), HSV-1 (E-377): 5.6
  antiviral activity against HSV-1 (in words): substantial antiviral activity
HSV-1 (E-377); comparison among analogs of Table II
  profile of activity in the antiviral assay (in words): best profile of activity
[1]
  IC50: 8.9 µM
  cytotoxicity (in words): significant cytotoxicities
HSV-2 (MS)
  VR (virus rating), HSV-2 (MS): 3.9
  antiviral activity against HSV-2 (in words): active

## Nc1nc(N)c2ncn([C@@H]3C[C@H](CO)[C@H](O)[C@H]3O)c2n1 (relative stereo) [Compound 10a]
HSV-1 (E-377)
  VR (virus rating), HSV-1 (E-377): 2.7
  antiviral activity against HSV-1 (in words): substantial antiviral activity
[1]
  IC50: 39 µM

## Nc1nc(Cl)c2nnn([C@@H]3C[C@H](CO)[C@H](O)[C@H]3O)c2n1 (relative stereo) [Compound 11, (d1)-(1 α,2 β,3 α,5 α)-3-(5-Amino-7-Chloro-3H-1,2,3-triazalo [4,5-d]pyrimidin-3-yl)-5-(hydroxymethyl)-1,2-cyclopentanediol]
[1]
  IC50: 50 µM

## COc1nc(N)nc2c1nnn2[C@@H]1C[C@H](CO)[C@H](O)[C@H]1O (relative stereo) [Compound 12, (d1)-(1 α,2 β,3 α,5 α)-3-(5-Amino-7-methoxy-3H-1,2,3-triazalo [4,5-d]pyrimidin-3-yl)-5-(hydroxymethyl)-1,2-cyclopentanediol]
[1]
  IC50: 63 µM

## Nc1nc2c(nnn2[C@@H]2C[C@H](CO)[C@H](O)[C@H]2O)c(=O)[nH]1 (relative stereo) [Compound 13a, (d1)-5-Amino-3,6-dihydro-3-[(1 α,2 β,3 α,5 α)-2,3-dihydroxy-4-(hydroxymethyl)cyclopentyl]-7H-1,2,3-triazalo[4,5-d]pyrimidin-7-one]
HSV-1 (E-377)
  VR (virus rating), HSV-1 (E-377): 2.4
  antiviral activity against HSV-1 (in words): substantial antiviral activity
[1]
  IC50: 1.6 µM
  cytotoxicity (in words): inhibition at the lowest concentration; also recorded: significant cytotoxicities
  cytotoxicity relative to the corresponding non-aza analogs 9a and 10a (in words): more active
Influenza virus
  activity against an influenza virus (in words): significant activity
HSV-2 (MS)
  VR (virus rating), HSV-2 (MS): 1.3
  antiviral activity against HSV-2 (in words): active

## Nc1nc(N)c2nnn([C@@H]3C[C@H](CO)[C@H](O)[C@H]3O)c2n1 (relative stereo) [Compound 14a, (d1)-(1 α,2 β,3 α,5 α)-3-(5,7-Diamino-3H-1,2,3-triazalo[4,5-d]pyrimidin-3-yl)-5-(hydroxymethyl)-1,2-cyclopentanediol]
HSV-1 (E-377)
  VR (virus rating), HSV-1 (E-377): 2.0
  antiviral activity against HSV-1 (in words): substantial antiviral activity
[1]
  IC50: 5.3 µM
  cytotoxicity (in words): significant cytotoxicities
  cytotoxicity relative to the corresponding non-aza analogs 9a and 10a (in words): more active

## Nc1ncnc2c1ncn2[C@@H]1O[C@H](CO)[C@@H](O)[C@@H]1O.O [Ara-A, 9-β-D-arabinofuranosyladenine monohydrate, reference compound]
HSV-1 (E-377)
  VR (virus rating), HSV-1 (E-377): 1.7
HSV-2 (MS)
  VR (virus rating), HSV-2 (MS): 1.6
